Experimental data taken from PubChem BioAssay (NCI).
Where “and” joins values, the source holds several entries; their conditions need not be identical. Equal values may be shown once.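 Protocol summary: plate cells (96-well), add compound at 5 concentrations, incubate 48 h, interpolate endpoints linearly. Here, GI50 denotes the concentration required for 50% inhibition of growth. TGI denotes the concentration required for complete inhibition of growth.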

How the values were obtained:
Assay in all cases: inhibition of tumour cell growth, NCI panel, 48 h
MDA-N = system: MDA-N
MDA-MB-435 = system: MDA-MB-435
HS 578T breast = system: HS 578T breast
DLD-1 colon = system: DLD-1 colon
XF 498 CNS = system: XF 498 CNS
SNB-78 CNS = system: SNB-78 CNS
HOP-18 NSCLC = system: HOP-18 NSCLC
M19-MEL melanoma = system: M19-MEL melanoma
RXF-631 renal = system: RXF-631 renal

Row | Structure (SMILES) | TGI (MDA-MB-435) | TGI (HS 578T breast) [µM] | GI50 (MDA-MB-435) | GI50 (HS 578T breast) [µM] | other results
1 | C[C@H]1/C(=C/C(=O)OCCN(C)C)CC[C@H]2[C@H]1C(=O)C[C@H]1C(C)(C)[C@@H](O)CC[C@]21C | > 100 µM | > 100 | – | – | TGI (MDA-N): > 100 µM
2 | C=C1CC2(CC(c3ccccc3Cl)OC(c3ccccc3Cl)C2)OC1=O (stereo unspecified) | 3.51 µM | 4.71 | – | – | TGI (MDA-N): 3.86 µM
3 | O=S(=O)([O-])c1ccc(N=Cc2ccccc2[O-])cc1.O=S(=O)([O-])c1ccc(N=Cc2ccccc2[O-])cc1.[Co+2] | – | – | – | – | GI50 (DLD-1 colon): 51.1 µM; TGI (DLD-1 colon): > 100 µM; GI50 (XF 498 CNS): 53.5 µM; TGI (XF 498 CNS): > 100 µM; GI50 (SNB-78 CNS): > 100 µM; TGI (SNB-78 CNS): > 100 µM; GI50 (HOP-18 NSCLC): 85.5 µM; TGI (HOP-18 NSCLC): > 100 µM; GI50 (M19-MEL melanoma): 76.5 µM; TGI (M19-MEL melanoma): > 100 µM
4 | O=C1/C=C/[C@@H](O)[C@@H]2C[C@@H](O)C[C@H]2/C=C/CCC[C@H](CCc2cccc3ccccc23)O1 | 3.43 µM | > 49.2 | 0.0394 µM | 0.779 | –
5 | Cc1nc2c(c(N3CCCc4ccccc43)n1)CCC2 | – | > 100 | – | < 0.01 | –
6 | CO[C@H]1C=CO[C@@]2(C)Oc3c(C)c(O)c4c(O)c(c(CN5CCN(C)CC5)c(O)c4c3C2=O)NC(=O)/C(C)=C\C=C[C@H](C)[C@H](O)C(C)[C@@H](O)C(C)[C@H](OC(C)=O)[C@@H]1C (stereo partly specified) | > 60.8 µM | > 100 | – | – | TGI (MDA-N): > 100 µM
7 | Cn1c(=O)c(Oc2ccc(F)cc2F)cc2cnc(NC(C)(C)CO)nc21 | > 25 µM | > 25 | > 25 µM | > 25 | –
8 | CCN(CC)CCCC(C)Nc1ccnc2cc(Cl)ccc12 (stereo unspecified) | 43.3 µM and 37.3 µM | > 100 | 20.3 µM | > 100 | TGI (MDA-N): 33.9 µM; TGI (DLD-1 colon): > 100 µM; TGI (XF 498 CNS): 32.6 µM; TGI (SNB-78 CNS): > 100 µM
9 | CCCCOC(=O)c1ccc(N)cc1 | > 100 µM | > 100 | 34.9 µM | 96.1 | –
10 | O=C(Nc1ccc(Cc2ccccc2)cc1)Nc1nn(C(=O)Nc2ccc(Cc3ccccc3)cc2)c2ccccc12 | > 100 µM | > 100 | > 100 µM | 74.2 | –
11 | CN(C)CCCN(CCC1CCCCC1)CCC1CCCCC1 | 3.03 µM | 4.76 | 1.35 µM | 1.9 | –
12 | CSc1c(C2=C(c3cn(C)c4ccccc34)C(=O)NC2=O)c2ccccc2n1C | – | > 25 | – | 0.59 | –
13 | COC(=O)c1ccccc1N(C(=O)c1ccccc1)c1ccccc1C | – | – | – | – | TGI (DLD-1 colon): > 100 µM; TGI (XF 498 CNS): 60.4 µM; TGI (HOP-18 NSCLC): > 100 µM; TGI (M19-MEL melanoma): > 100 µM
14 | O=C(O)C[C@@H](Cl)[C@H](NC(=O)OCc1ccccc1)C(=O)O | – | – | – | – | TGI (DLD-1 colon): > 100 µM; TGI (XF 498 CNS): > 100 µM; TGI (SNB-78 CNS): > 100 µM; TGI (HOP-18 NSCLC): > 100 µM; TGI (M19-MEL melanoma): > 100 µM
15 | O=C(O)[C@H](Cc1c[nH]c2ccccc12)N1C(=O)c2ccccc2C1=O | > 100 µM | > 100 | – | – | –
16 | CC(CC(=O)N1C(=O)C(C)(C)[C@@H](O)[C@H]1CC(C)C(Cl)(Cl)Cl)C(Cl)(Cl)Cl (stereo partly specified) | – | – | – | – | TGI (DLD-1 colon): > 100 µM; TGI (XF 498 CNS): > 100 µM; TGI (SNB-78 CNS): > 100 µM; TGI (HOP-18 NSCLC): > 100 µM; TGI (M19-MEL melanoma): > 100 µM
17 | C=C(CO)CC(O)c1cc(OC)ccc1OC (stereo unspecified) | – | – | – | – | TGI (XF 498 CNS): > 100 µM; TGI (M19-MEL melanoma): > 100 µM
18 | O=C(/C=C/c1ccc(Cl)cc1)c1ccccc(=O)c1O | 20.8 µM | 31.1 | – | – | –

Row | Structure (SMILES) | TGI (MDA-MB-435) | TGI (HS 578T breast) [µM] | GI50 (MDA-MB-435) | GI50 (HS 578T breast) [µM] | other results
19 | C=C(CN1CCN(c2ccc(C(F)(F)F)cc2)CC1)c1ccc(C(=O)Nc2ccccc2N)cc1 | > 100 µM | > 100 | > 25.2 µM | 22.6 | –
20 | N#CC(/C(CCC(=O)Nc1ccc(Cl)cc1)=N/NC(=O)c1cc2ccccc2cc1O)c1ccccc1 (stereo unspecified) | – | – | – | – | TGI (DLD-1 colon): > 100 µM; TGI (XF 498 CNS): > 100 µM; TGI (SNB-78 CNS): > 100 µM; TGI (HOP-18 NSCLC): 89.8 µM; TGI (M19-MEL melanoma): > 100 µM
21 | CCOC(=O)C(=O)Nc1nc2c(OCC)cccc2s1 | – | – | – | – | TGI (DLD-1 colon): > 100 µM; TGI (SNB-78 CNS): > 100 µM; TGI (RXF-631 renal): > 100 µM; TGI (HOP-18 NSCLC): > 100 µM; TGI (M19-MEL melanoma): > 100 µM
22 | CC(C)C12Cc3c(ccc4ccccc34)OC1(C)Oc1ccc3ccccc3c1C2 (stereo unspecified) | – | – | – | – | TGI (DLD-1 colon): > 100 µM; TGI (XF 498 CNS): > 100 µM; TGI (SNB-78 CNS): > 100 µM
23 | CCCc1n(Cc2ccc3ccccc3c2)cc[n+]1Cc1ccc2ccccc2c1 | 2.06 µM | 6.67 | 0.564 µM | 1.75 | –
24 | COC(=O)C1=C(O)[C@H](C(=O)OC)C2(O)C(C(=O)OC)[C@H](c3ccc(OC(=O)C(C)c4ccccc4)cc3)C[C@@H]1[C@@H]2C(=O)OC (stereo partly specified) | 25.1 µM | 34.1 | 10.4 µM | 10.3 | –
25 | Cc1ccc(Nc2nccc(N(C)c3ccc4c(C)n(C)nc4c3)n2)cc1S(N)(=O)=O | > 100 µM and > 10 µM and 34.4 µM | – | 3.93 µM and 0.758 µM and 6.37 µM | – | –
26 | NCCc1ccc(S(=O)(=O)F)cc1 | > 100 µM | > 100 | 65.1 µM | 82.8 | –
27 | CC(=O)OC1CCC2(C)C(CCC3C2CC(=O)C2(C)C3CC(N3CC3)C2C(C)=O)C1 (stereo unspecified) | 51.5 µM | 40.9 | – | – | TGI (MDA-N): 56.2 µM
28 | N/N=C1\C(=O)N(Cc2ccccc2)C(=O)C1C(=O)NCc1ccccc1 (stereo unspecified) | – | – | – | – | TGI (DLD-1 colon): > 100 µM; TGI (SNB-78 CNS): > 100 µM; TGI (HOP-18 NSCLC): > 100 µM; TGI (M19-MEL melanoma): > 100 µM
29 | CC/C=C\C[C@H](F)C/C=C1/C(=O)C=C[C@@H]1C/C=C\CCCC(=O)OC | 3.37 µM | 21 | 1.25 µM | 3.51 | –
30 | COc1cc2c(c(OC)c1OC)-c1ccc(O)cc1[C@@H](NC(C)=O)CC2 | 0.0463 µM | – | 0.0206 µM | 0.0371 | –
31 | CC(=O)/C(=C/c1ccccc1)C(=O)CC(C)C | 7.72 µM | 21.2 | 2.44 µM | 3.89 | –
32 | CSC(=NC#N)S/C=C/C(=O)c1ccccc1 | > 100 µM | 96.8 | 34.7 µM | 39 | –
33 | COC1C(O)CC(OC2CC(OC3CC(O[C@@H]4C(=O)c5c(cc6cc(OC7CC(OC8CC(O)C(O)C(C)O8)C(O)C(C)O7)c(C)c(O)c6c5O)CC4[C@H](OC)C(=O)O)OC(C)C3O)OC(C)C2O)OC1C (stereo partly specified) | 24.7 µM | > 33.3 | 2.56 µM | 1.93 | –
34 | CCCCC(CCCCCC(CCCC)NCc1ccc2c(c1)OCO2)NCc1ccc2c(c1)OCO2 (stereo unspecified) | 0.398 µM | 2.92 | 0.199 µM | 0.977 | –
35 | N.N.N.N.N.NC(=O)[O-].[Co+3].[I-] | – | – | – | – | GI50 (DLD-1 colon): > 100 µM; TGI (DLD-1 colon): > 100 µM; GI50 (SNB-78 CNS): > 100 µM; TGI (SNB-78 CNS): > 100 µM
